Patent publication US20110009435A1, “HETERO BICYCLIC CARBOXAMIDE DERIVATIVES AND THEIR PHARMACEUTICAL USE AND COMPOSITIONS” (Pfizer, Inc., priority 2007, published 2011)
pKi: −log10 of the molar value.

Tests used:
Type in all cases: biochemical
[1] = target: T1, catalytic domain of human recombinant MMP-3 (Homo sapiens, UniProt P08254); assay: In vitro MMP inhibition assay, MMP-3 catalytic domain (fluorogenic peptide substrate cleavage, Ki); details: human MMP-3, catalytic domain (CD); read-out: hMMP Ki 03/CD
T1 construct: made in house
T1 sequence (P08254 100-272 limits assumed): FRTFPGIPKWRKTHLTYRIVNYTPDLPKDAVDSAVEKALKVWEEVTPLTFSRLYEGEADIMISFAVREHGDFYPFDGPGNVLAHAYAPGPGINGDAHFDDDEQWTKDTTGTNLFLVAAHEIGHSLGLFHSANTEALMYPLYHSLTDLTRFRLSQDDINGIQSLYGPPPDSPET
Method: (§1) Matrix Metalloproteinase inhibitor compounds were analyzed in in vitro MMP Inhibition assays to determine their ability to inhibit the MMP cleavage of peptide substrates. Inhibition constants (Ki) were calculated from the assayed compound-MMP interactions.
(§2) Human recombinant MMP-1, MMP-2, MMP-3, MMP-7, MMP-9, MMP-12, MMP-13, MMP-14 and MMP-15 were used in these assays. The enzymes are prepared following known laboratory procedures. Protocols for the preparation and use of these enzymes are available in the scientific literature. See, e.g., Enzyme Nomenclature (Academic Press, San Diego, Calif., 1992) and the citations therein. See also Frije et al., J. Biol. Chem., 26(24), 16766-73 (1994).
The catalytic domain MMP-3 cDNA may be used to express the catalytic domain enzyme in E. coli inclusion bodies. Then the enzyme is solubilized in urea, purified on a preparative […] reverse phase HPLC column, and refolded in the presence of zinc acetate and purified for use.
The fluorogenic, methoxycoumarin-containing polypeptide substrate Mca-Arg-Pro-Lys-Pro-Val-Glu-Nva-Trp-Arg-Lys(Dnp)-NH2 (Bachem catalog number M-2110) was used as the MMP substrate in the MMP inhibition assays for catalytic domain of human recombinant MMP-3 (which refers to the catalytic domain of stromelysin). Here, “MCA” is 7-methoxycoumarin-4-yl acetyl and “Dpa” is 3-(2,4-dinitrophenyl)-L-2,3-di-aminopropionyl group. In the absence of MMP inhibitory activity, the substrate is cleaved at the Gly-Leu peptide bond. The cleavage separates the highly fluorogenic peptide from the 2,4-dinitrophenyl quencher, resulting in an increase of fluorescent intensity.
For the human MMP-3 assay, dilutions of the inhibitors (or salts thereof) were prepared in 100% DMSO. The stock solutions were diluted in Buffer B (50 mM N-morpholinoethane sulfonate (“MES”), 100 mM NaCl, 10 mM CaCl2, 0.005% polyoxyethylene 23 lauryl ether, pH 6.0)) to obtain solutions with different compound concentrations, i.e., assay solutions with different concentrations of the assayed MMP inhibitory compound in 1% DMSO. The experiment controls contained the same amount of Buffer B/DMSO as the assayed sample, but contained no inhibitor.
(§3) To determine Ki, the inhibitor samples are incubated at room temperature for 1 hr in the presence of enzyme and then 4 μM of appropriate MMP substrate was added, and samples were analyzed on a Tecan SpectraFlour Plus plate reader. The excitation wavelength is 330 nm, and the emission (fluorescence) wavelength is 420 nm. In the absence of MMP inhibitory activity, the substrate is cleaved at the Gly-Leu bond resulting in an increase of relative fluorescence. Inhibition is observed as a reduced rate of increase in relative fluorescence.
(§4) The inhibitors are analyzed using a single low enzyme concentration with a single substrate concentration fixed at or below the Km. This protocol is a modification of method by Knight et al., FEBS Lett., 296(3), 263-266 (1992). Apparent inhibitory constants are determined by non-linear regression of reaction velocity as a function of inhibitor and enzyme concentration using Morrison's equation, as described by Kuzmic, Anal. Biochem. 286, 45-50 (2000). Modifications were made in the non-linear regression method to allow a common control reaction rate and effective enzyme concentration to be shared between all dose-response relationships on a given assay plate. Since the substrate concentration was chosen to be at or below the Km, the apparent Ki's from this analysis were reported as Ki's without correction for the influence of substrate.

Human recombinant MMP-12 = target: T2, Human recombinant MMP-12 (Homo sapiens, UniProt P39900); assay: In vitro MMP inhibition assay, MMP-12 catalytic domain (fluorogenic peptide substrate cleavage, Ki); details: human MMP-12, catalytic domain (CD); read-out: hMMP Ki 12/CD
T2 construct: The catalytic domain of MMP-12 and MMP-15 enzymes were purchased commercially for these assays; purchased
T2 sequence (P39900 106-263 limits assumed): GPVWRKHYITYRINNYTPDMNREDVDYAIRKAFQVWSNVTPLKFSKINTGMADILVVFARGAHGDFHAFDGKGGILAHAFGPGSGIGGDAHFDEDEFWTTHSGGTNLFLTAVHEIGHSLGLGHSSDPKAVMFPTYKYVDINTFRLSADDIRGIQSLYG
Method: as §1, §2
(§5) The catalytic domain of MMP-12 and MMP-15 enzymes were purchased commercially for these assays.
(§6) The fluorogenic, methoxycoumarin-containing polypeptide substrate MCA-ArgProLeuGlyLeuDpaAlaArgGluArgNH2 was used as the MMP substrate in the MMP inhibition assays for human recombinant MMP-1, MMP-2, MMP-7, MMP-9, MMP-12, MMP-13, MMP-14 and MMP-15. Here, “MCA” is 7-methoxycoumarin-4-yl acetyl and “Dpa” is 3-(2,4-dinitrophenyl)-L-2,3-di-aminopropionyl group. In the absence of MMP inhibitory activity, the substrate is cleaved at the Gly-Leu peptide bond. The cleavage separates the highly fluorogenic peptide from the 2,4-dinitrophenyl quencher, resulting in an increase of fluorescent intensity.
(§7) For the human MMP-1, MMP-2, MMP-7, MMP-9, MMP-12, MMP-13, MMP-14 and MMP-15 assays, dilutions of the inhibitors (or salts thereof) were prepared in 100% dimethyl sulfoxide (DMSO). The stock solutions were diluted in Buffer A (100 mM Tris-HCl, 100 mM NaCl, 10 mM CaCl2, 0.005% polyoxyethylene 23 lauryl ether, pH 7.5) to obtain solutions with different compound concentrations, i.e., assay solutions with different concentrations of the assayed MMP inhibitory compound in 1% DMSO. The experiment controls contained the same amount of Buffer A/DMSO as the assayed sample, but contained no inhibitor.
as §3, §4

Human recombinant MMP-13 = target: T3, Human recombinant MMP-13 (Homo sapiens, UniProt P45452); assay: In vitro MMP inhibition assay, MMP-13 (fluorogenic peptide substrate cleavage, Ki); details: human MMP-13, full length (FL); read-out: hMMP Ki 13/FL
T3 construct: made in house; host or cells: baculovirus expression (insect cells)
Method: as §1, §2
The MMP-13 may be obtained as a proenzyme from a full-length cDNA clone using baculovirus expression, as described by V. A. Luckow, “Insect Cell Expression Technology,” Protein Engineering: Principles and Practice, pp. 183-218 (edited by J. L. Cleland et al., Wiley-Liss, Inc., 1996). The expressed proenzyme was first purified over a heparin agarose column, and then over a chelating zinc chloride column. Further details on baculovirus expression systems may be found in, for example, Luckow et al., J. Virol., 67, 4566-79 (1993). See also O'Reilly et al, Baculovirus Expression Vectors: A Laboratory Manual (W. H. Freeman and Co., New York, N.Y., 1992). See also King et al., The Baculovirus Expression System: A Laboratory Guide (Chapman & Hall, London, England, 1992).
All full length MMPs were activated using 4-aminophenylmercuric acetate (“APMA”, Sigma Chemical, St. Louis, Mo.) or trypsin. MMP-9 also was activated using human recombinant MMP-3 following standard cloning and purification techniques.
as §6, §7, §3
The inhibitors are analyzed using a single low enzyme concentration with a single substrate concentration fixed at or below the Km. This protocol is a modification of method by Knight et al., FEBS Lett., 296(3), 263-266 (1992). Apparent inhibitory constants are determined by non-linear regression of reaction velocity as a function of inhibitor and enzyme concentration using Morrison's equation, as described by Kuzmic, Anal. Biochem. 286, 45-50 (2000). […]

Human recombinant MMP-14 = target: T4, Human recombinant MMP-14 (Homo sapiens, UniProt P50281); assay: In vitro MMP inhibition assay, MMP-14 catalytic domain (fluorogenic peptide substrate cleavage, Ki); details: human MMP-14, catalytic domain (CD); read-out: hMMP Ki 14/CD
T4 construct: The MMP-14 cDNA may be used to express the catalytic domain enzyme in E. coli inclusion bodies; made in house
Method: as §1, §2
The MMP-14 cDNA may be used to express the catalytic domain enzyme in E. coli inclusion bodies. Then the enzyme is solubilized in urea, purified on a preparative […] reverse phase HPLC column, and refolded in the presence of zinc acetate and purified for use.
as §6, §7, §3
as §4, with “Since the substrate concentration was chosen to be at or below the Km, the apparent Ki's from this analysis were reported as Ki's without correction for the influence of substrate.” left out

Human recombinant MMP-15 = target: T5, Human recombinant MMP-15 (Homo sapiens, UniProt P51511); assay: In vitro MMP inhibition assay, MMP-15 catalytic domain (fluorogenic peptide substrate cleavage, Ki); details: human MMP-15, catalytic domain (CD); read-out: hMMP Ki 15/CD
T5 construct: The catalytic domain of MMP-12 and MMP-15 enzymes were purchased commercially for these assays; purchased
T5 sequence (P51511 132-304 limits assumed): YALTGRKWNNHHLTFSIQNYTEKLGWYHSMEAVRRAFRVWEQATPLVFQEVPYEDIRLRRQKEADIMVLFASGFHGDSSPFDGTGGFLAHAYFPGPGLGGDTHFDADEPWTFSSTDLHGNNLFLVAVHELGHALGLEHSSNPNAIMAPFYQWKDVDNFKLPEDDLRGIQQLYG
Method: as §1, §2, §5, §6, §7, §3, §4

| pKi [1] | pKi (Human recombinant MMP-12) | pKi (Human recombinant MMP-13) | pKi (Human recombinant MMP-14) | pKi (Human recombinant MMP-15) | SMILES |
| --- | --- | --- | --- | --- | --- |
| 6.00 | < 5.00 | 9.14 | < 5.00 | < 5.00 | COc1cc(CNC(=O)c2nc3scc(COC[C@H]4CC[C@H](NS(C)(=O)=O)CC4)c3c(=O)[nH]2)ccc1F [Example 18, N-(4-Fluoro-3-methoxybenzyl)-5-[({trans-4-[(methylsulfonyl)amino]cyclohexyl}methoxy)methyl]-4-oxo-3,4-dihydrothieno[2,3-d]pyrimidine-2-carboxamide] |
| 5.91 | < 5.00 | 8.61 | < 5.00 | < 5.00 | COc1cc(CNC(=O)c2nc3scc(COC[C@H]4CC[C@H](NC(C)=O)CC4)c3c(=O)[nH]2)ccc1F [Example 19, 5-({[trans-4-(Acetylamino)cyclohexyl]methoxy}methyl)-N-(4-fluoro-3-methoxybenzyl)-4-oxo-3,4-dihydrothieno[2,3-d]pyrimidine-2-carboxamide] |
